Results: US5925631A, “Alkylated styrenes as prodrugs to COX-2 inhibitors” (Merck & Co., Inc., priority 1998, dated 1999)

System: Rat Paw Edema
Test: Rat paw edema assay (carrageenan)
Assay type: in vivo, rat (Male Sprague-Dawley)
Settings: po, p.o. 1 h before subplantar carrageenan (500 μg per paw), paw volume at 3 h, read-out: Rat Paw Edema ED50, dose of prodrug required to reduce edema formation by 50% as compared to vehicle control
Experimental: Male Sprague-Dawley rats (150-200 g) are fasted overnight and are given, p0, either vehicle (1% methocel or 5% Tween 80) or a test compound. One hr later, a line is drawn using a permanent marker at the level above the ankle in one hind paw to define the area of the paw to be monitored. The paw volume (V0) is measured using a plethysmometer (Ugo-Basile, Italy) based on the principle of water displacement. The animals are then injected subplantarly with 50 μl of 1% carrageenan solution in saline (FMC Corp, Me.) into the paw using an insulin syringe with a 25-gauge needle (i.e. 500 μg carrageenan per paw). Three hr later, the paw volume (V3) is measured and the increases in paw volume (V3 - VO) are calculated. The animals are sacrificed by CO2 asphyxiation and the absence or presence of stomach lesions scored. Data is compared with the vehicle-control values and percent inhibition calculated. All treatment groups are coded to eliminate observer bias.
Compounds of the present invention are prodrugs of inhibitors of COX-2 and are thereby useful in the treatment of COX-2 mediated diseases as enumerated above. The extent of conversion of these compounds to the active COX-2 inhibitors may be seen in the representative results shown in Table III along with their antiinflammatory activity. The plasma levels indicated are the maximum rat plasma concentrations of the active COX-2 inhibitor observed when the rat was treated with a 20 mg/kg oral dose of the indicated prodrug. The ED50 values in the rat paw edema assay represent the dose of prodrug required to reduce edema formation by 50% as compared to the vehicle control.

Point of comparison: `CC(C)(O)/C(=C(\CO)c1cccc(F)c1)c1ccc(S(C)(=O)=O)cc1` [Example 1, 2-(3-Fluorophenyl)-4-methyl-3-(4-(methylsulfonyl)-phenyl)-2-(Z)-penten-1,4-diol], ED50 10 mg/kg. Against it:
- COC(C)(C)/C(=C(\C(=O)N(C)C)c1cccc(F)c1)c1ccc(S(C)(=O)=O)cc1 [Example 4, N,N-Dimethyl-2-(3-fluorophenyl)-4-methoxy-4-methyl-3-(4-(methylsulfonyl)phenyl)-2-(Z)-pentenamide] — 6.2-fold lower, 1.6 mg/kg
- COC(=O)/C(=C(/c1ccc(S(C)(=O)=O)cc1)C(C)(C)OC)c1cccc(F)c1 [Example 6, Methyl 2-(3-fluorophenyl)-4-methoxy-4-methyl-3-(4-(methylsulfonyl)phenyl)-2-(Z)-pentenoate] — 4.8-fold lower, 2.1 mg/kg
